From patent publication US20160130278A1 (TAISHO PHARMACEUTICAL CO., LTD, priority 2013, published 2016)

Molecular target: T1, human type 1 glycine transporter (GlyT1) (Homo sapiens, UniProt P48067)
T1 construct: T98G cells (glioma cells) expressing human type 1 glycine transporter (GlyT1) were used
T1 sequence (P48067 1-706): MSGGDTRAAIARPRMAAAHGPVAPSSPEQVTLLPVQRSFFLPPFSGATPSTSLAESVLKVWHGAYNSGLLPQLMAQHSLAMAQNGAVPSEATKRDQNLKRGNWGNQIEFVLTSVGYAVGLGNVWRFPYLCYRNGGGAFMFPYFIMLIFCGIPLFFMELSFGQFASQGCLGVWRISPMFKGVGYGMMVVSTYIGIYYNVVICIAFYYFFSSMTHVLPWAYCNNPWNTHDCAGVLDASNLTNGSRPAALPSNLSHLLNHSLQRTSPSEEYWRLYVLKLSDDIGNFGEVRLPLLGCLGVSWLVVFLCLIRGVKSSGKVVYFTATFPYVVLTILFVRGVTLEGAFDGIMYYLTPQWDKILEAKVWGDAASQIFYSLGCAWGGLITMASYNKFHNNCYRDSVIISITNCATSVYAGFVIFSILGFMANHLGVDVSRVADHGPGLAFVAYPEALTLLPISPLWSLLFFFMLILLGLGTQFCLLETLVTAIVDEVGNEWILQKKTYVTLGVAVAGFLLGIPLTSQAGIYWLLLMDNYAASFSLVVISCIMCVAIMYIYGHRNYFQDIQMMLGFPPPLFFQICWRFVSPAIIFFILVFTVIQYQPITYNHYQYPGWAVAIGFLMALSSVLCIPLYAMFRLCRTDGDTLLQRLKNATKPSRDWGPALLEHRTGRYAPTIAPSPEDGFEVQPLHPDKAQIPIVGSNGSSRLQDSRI
Experiment: Glycine uptake inhibition experiment ([3H]glycine uptake)
Type: cell-based
Details: GlyT1
In short: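 T98G glioma cells expressing human GlyT1 were pretreated 10 min with compound in HEPES buffer pH 7.4 (0.2% BSA), then incubated with compound plus 250 nM final [3H]glycine for 15 min at room temperature. Intracellular radioactivity was counted after NaOH lysis; 10 μM ALX5407 defined non-specific uptake. IC50 came from 10^−9–10^−5 M curves.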

Point of comparison: O=C(NC(c1ccc(F)c(F)c1F)C1(O)CCC(F)(F)CC1)c1ccnc(C(F)(F)F)c1Cl (stereo not shown) [Compound 171, 3-chloro-N-[(4,4-difluoro-1-hydroxycyclohexyl)(2,3,4-trifluorophenyl)methyl]-2-(trifluoromethyl)pyridine-4-carboxamide], IC50 1.1 µM. Against it:
- O=C(NC(c1cccc(Cl)c1)[C@]1(O)CC[C@@H](F)CC1)c1nccc(C(F)(F)F)c1Cl (stereo partly drawn) [Compound 153, 3-chloro-N-[(3-chlorophenyl)(cis-4-fluoro-1-hydroxycyclohexyl)methyl]-4-(trifluoromethyl)pyridine-2-carboxamide] — 11-fold lower, 0.098 µM
- CCn1cc(-c2cccc(C(NC(=O)c3ccnc(C(F)(F)F)c3Cl)C3(O)CCC(F)(F)CC3)c2)cn1 (stereo not shown) [Compound 157, 3-chloro-N-[(4,4-difluoro-1-hydroxycyclohexyl)[3-(1-ethyl-1H-pyrazol-4-yl)phenyl]methyl]-2-(trifluoromethyl)pyridine-4-carboxamide] — 6.9-fold lower, 0.16 µM
- O=C(NC(c1ccccc1)[C@]1(O)CC[C@@H](F)CC1)c1nccc(C(F)(F)F)c1Cl (stereo partly drawn) [Compound 158, 3-chloro-N-[(cis-4-fluoro-1-hydroxycyclohexyl)(phenyl)methyl]-4-(trifluoromethyl)pyridine-2-carboxamide] — 3.1-fold lower, 0.35 µM
- O=C(NC(c1cccc(-c2cnccn2)c1)C1(O)CCC(F)(F)CC1)c1nccc(C(F)(F)F)c1Cl (stereo not shown) [Compound 159, 3-chloro-N-{(4,4-difluoro-1-hydroxycyclohexyl)[3-(pyrazin-2-yl)phenyl]methyl}-4-(trifluoromethyl)pyridine-2-carboxamide] — 3.4-fold lower, 0.32 µM
- O=C(NC(c1cccc(-c2ncccn2)c1)C1(O)CCC(F)(F)CC1)c1nccc(C(F)(F)F)c1Cl (stereo not shown) [Compound 160, 3-chloro-N-{(4,4-difluoro-1-hydroxycyclohexyl)[3-(pyrimidin-2-yl)phenyl]methyl}-4-(trifluoromethyl)pyridine-2-carboxamide] — within 1.5-fold, 0.88 µM
- O=C(N[C@H](c1cccc(Cl)c1)[C@]1(O)CC[C@@H](F)CC1)c1nccc(C(F)(F)F)c1Cl [Compound 161, 3-chloro-N-[(R)-(3-chlorophenyl)(cis-4-fluoro-1-hydroxycyclohexyl)methyl]-4-(trifluoromethyl)pyridine-2-carboxamide] — 6.1-fold higher, 6.7 µM
- O=C(N[C@@H](c1cccc(Cl)c1)[C@]1(O)CC[C@@H](F)CC1)c1nccc(C(F)(F)F)c1Cl [Compound 162, 3-chloro-N-[(S)-(3-chlorophenyl)(cis-4-fluoro-1-hydroxycyclohexyl)methyl]-4-(trifluoromethyl)pyridine-2-carboxamide] — 17-fold lower, 0.065 µM
- O=C(NC(c1cccc(Cl)c1)[C@]1(O)CC[C@@H](F)CC1)c1ccnc(C(F)(F)F)c1Cl (stereo partly drawn) [Compound 163, 3-chloro-N-[(3-chlorophenyl)(cis-4-fluoro-1-hydoxycyclohexyl)methyl]-2-(trifluoromethyl)pyridine-4-carboxamide] — 2.8-fold lower, 0.39 µM
- O=C(NC(c1ccc(F)c(F)c1F)C1(O)CCC(F)(F)CC1)c1nccc(C(F)(F)F)c1Cl (stereo not shown) [Compound 170, 3-chloro-N-[(4,4-difluoro-1-hydroxycyclohexyl)(2,3,4-trifluorophenyl)methyl]-4-(trifluoromethyl)pyridine-2-carboxamide] — 1.7-fold lower, 0.63 µM
- CCn1cc(-c2cccc(C(NC(=O)c3ccnc(C(F)(F)F)c3)C3(O)CCC(F)(F)CC3)c2)cn1 (stereo not shown) [Compound 172, N-{(4,4-difluoro-1-hydroxycyclohexyl)[3-(1-ethyl-1H-pyrazol-4-yl)phenyl]methyl}-2-(trifluoromethyl)pyridine-4-carboxamide] — 4.5-fold higher, 5 µM
- CCn1cc(-c2cccc(C(NC(=O)c3ccnc(Cl)c3Cl)C3(O)CCC(F)(F)CC3)c2)cn1 (stereo not shown) [Compound 173, 2,3-dichloro-N-{(4,4-difluoro-1-hydroxycyclohexyl)[3-(1-ethyl-1H-pyrazol-4-yl)phenyl]methyl}pyridine-4-carboxamide] — within 1.5-fold, 1 µM
- CCn1cc(-c2cccc(C(NC(=O)c3c(Cl)cccc3Cl)C3(O)CCC(F)(F)CC3)c2)cn1 (stereo not shown) [Compound 174, 2,6-dichloro-N-{(4,4-difluoro-1-hydroxycyclohexyl)[3-(1-ethyl-1H-pyrazol-4-yl)phenyl]methyl}benzamide] — the same, 1.1 µM
- CCn1cc(-c2cccc(C(NC(=O)c3ccc(Cl)c(Cl)c3)C3(O)CCC(F)(F)CC3)c2)cn1 (stereo not shown) [Compound 175, 3,4-dichloro-N-{(4,4-difluoro-1-hydroxycyclohexyl)[3-(1-ethyl-1H-pyrazol-4-yl)phenyl]methyl}benzamide] — 3.6-fold higher, 4 µM
- CCn1cc(-c2cccc(C(NC(=O)c3c(Cl)cc(Cl)cc3Cl)C3(O)CCC(F)(F)CC3)c2)cn1 (stereo not shown) [Compound 176, 2,4,6-trichloro-N-{(4,4-difluoro-1-hydroxycyclohexyl)[3-(1-ethyl-1H-pyrazol-4-yl)phenyl]methyl}benzamide] — within 1.5-fold, 1 µM
- CCn1cc(-c2cccc(C(NC(=O)c3cc(C(F)(F)F)ccc3C)C3(O)CCC(F)(F)CC3)c2)cn1 (stereo not shown) [Compound 179, N-{(4,4-difluoro-1-hydroxycyclohexyl)[3-(1-ethyl-1H-pyrazol-4-yl)phenyl]methyl}-2-methyl-5-(trifluoromethyl)benzamide] — 1.8-fold lower, 0.61 µM
- CCn1cc(-c2cccc(C(NC(=O)c3cc(C(F)(F)F)ccc3Cl)C3(O)CCC(F)(F)CC3)c2)cn1 (stereo not shown) [Compound 180, 2-chloro-N-{(4,4-difluoro-1-hydroxycyclohexyl)[3-(1-ethyl-1H-pyrazol-4-yl)phenyl]methyl}-5-(trifluoromethyl)benzamide] — 5.2-fold lower, 0.21 µM
- CCn1cc(-c2cccc(C(NC(=O)c3cccc(C(F)(F)F)c3F)C3(O)CCC(F)(F)CC3)c2)cn1 (stereo not shown) [Compound 181, N-[(4,4-difluoro-1-hydroxycyclohexyl)[3-(1-ethyl-1H-pyrazol-4-yl)phenyl]methyl}-2-fluoro-3-(trifluoromethyl)benzamide] — within 1.5-fold, 1.5 µM
- CCn1cc(-c2cccc(C(NC(=O)c3c(Cl)ccc(Cl)c3OC)C3(O)CCC(F)(F)CC3)c2)cn1 (stereo not shown) [Compound 182, 3,6-dichloro-N-[(4,4-difluoro-1-hydroxycyclohexyl)[3-(1-ethyl-1H-pyrazol-4-yl)phenyl]methyl}-2-methoxybenzamide] — 1.9-fold lower, 0.58 µM
- CCn1cc(-c2cccc(C(NC(=O)c3c(Cl)ccc(OC)c3F)C3(O)CCC(F)(F)CC3)c2)cn1 (stereo not shown) [Compound 183, 6-chloro-N-{(4,4-difluoro-1-hydroxycyclohexyl)[3-(1-ethyl-1H-pyrazol-4-yl)phenyl]methyl}-2-fluoro-3-methoxybenzamide] — 1.8-fold higher, 2 µM
- CCn1cc(-c2cccc(C(NC(=O)c3ccc(C(F)(F)F)cc3C)C3(O)CCC(F)(F)CC3)c2)cn1 (stereo not shown) [Compound 184, N-{(4,4-difluoro-1-hydroxycyclohexyl)[3-(1-ethyl-1H-pyrazol-4-yl)phenyl]methyl}2-methyl-4-(trifluoromethyl)benzamide] — within 1.5-fold, 0.86 µM
- O=C(N[C@@H](c1cccc(Cl)c1)[C@]1(O)CC[C@@H](F)CC1)c1ccnc(C(F)(F)F)c1Cl [Compound 186, 3-chloro-N-[(S)-(3-chlorophenyl)(cis-4-fluoro-1-hydroxycyclohexyl)methyl]-2-(trifluoromethyl)pyridine-4-carboxamide] — 7.3-fold lower, 0.15 µM
- O=C(N[C@@H](c1cccc(Cl)c1)[C@]1(O)CC[C@H](F)CC1)c1nccc(C(F)(F)F)c1Cl [Compound 187, 3-chloro-N-[(S)-(3-chlorophenyl)(trans-4-fluoro-1-hydroxycyclohexyl)methyl]-4-(trifluoromethyl)pyridine-2-carboxamide] — 5.2-fold lower, 0.21 µM
- CCn1cc(-c2cccc(C(NC(=O)c3ccc(Cl)cc3Cl)C3(O)CCC(F)(F)CC3)c2)cn1 (stereo not shown) [Compound 191, 2,4-dichloro-N-{(4,4-difluoro-1-hydroxycyclohexyl)[3-(1-ethyl-1H-pyrazol-4-yl)phenyl]methyl}benzamide] — within 1.5-fold, 1.3 µM
- CCn1cc(-c2cccc(C(NC(=O)c3ccc(F)cc3C(F)(F)F)C3(O)CCC(F)(F)CC3)c2)cn1 (stereo not shown) [Compound 192, N-{(4,4-difluoro-1-hydroxycyclohexyl)[3-(1-ethyl-1H-pyraozl-4-yl)phenyl]methyl}-4-fluoro-2-(trifluoromethyl)benzamide] — 3.2-fold lower, 0.34 µM
- CCn1cc(-c2cccc(C(NC(=O)c3cc(C(F)(F)F)cnc3Cl)C3(O)CCC(F)(F)CC3)c2)cn1 (stereo not shown) [Compound 202, 2-chloro-N-{(4,4-difluoro-1-hydroxycyclohexyl)[3-(1-ethyl-1H-pyrazol-4-yl)phenyl]methyl}-5-(trifluoromethyl)pyridine-3-carboxamide] — within 1.5-fold, 0.9 µM
- CCn1cc(-c2cccc(C(NC(=O)c3cc(Cl)ccc3C(F)(F)F)C3(O)CCC(F)(F)CC3)c2)cn1 (stereo not shown) [Compound 203, 5-chloro-N-{(4,4-difluoro-1-hydroxycyclohexyl)[3-(1-ethyl-1H-pyrazol-4-yl)phenyl]methyl}-2-(trifluoromethyl)benzamide] — 1.5-fold lower, 0.73 µM
- CCn1cc(-c2cccc(C(NC(=O)c3ccccc3Cl)C3(O)CCC(F)(F)CC3)c2)cn1 (stereo not shown) [Compound 205, 2-chloro-N-[(4,4-difluoro-1-hydroxycyclohexyl)[3-(1-ethyl-1H-pyrazol-4-yl)phenyl]methyl}benzamide] — 1.7-fold higher, 1.9 µM
